{
  "source": "the NIST ThermoML archive (doi:10.1016/j.fluid.2009.02.010)",
  "key": {"[1]": {"experiment": "refractive index (Na D-line) (dimensionless)", "details": "298.15 K; 101.33 kPa; Liquid; Standard Abbe refractometry"}, "[2]": {"details": "Liquid, Ebulliometric method (Recirculating still)"}},
  "note": "± gives the expanded uncertainty stated by the source.",
  "data": [
    {"smiles": "CC(C)CC(C)(C)C", "note": "[2,2,4-trimethylpentane]", "values": [
      {"measurement": "refractive index", "setting": "[1]", "result": "1.3889 ± 0.0007"}
    ]},
    {"smiles": "C1CCCCC1", "note": "[cyclohexane]", "values": [
      {"measurement": "refractive index", "setting": "[1]", "result": "1.4235 ± 0.0007"}
    ]},
    {"smiles": "Cc1ccccc1C", "note": "[1,2-dimethylbenzene]", "values": [
      {"measurement": "refractive index", "setting": "[1]", "result": "1.5028 ± 0.0007"}
    ]},
    {"smiles": "C=CCCCC", "note": "[hex-1-ene]", "values": [
      {"measurement": "refractive index", "setting": "[1]", "result": "1.3849 ± 0.0007"}
    ]},
    {"smiles": "Cc1ccsc1", "note": "[3-methylthiophene]", "values": [
      {"measurement": "refractive index", "setting": "[1]", "result": "1.5172 ± 0.0007"},
      {"measurement": "vapor or sublimation pressure", "setting": "[2]; 333.15 K", "result": "15.43 ± 0.35", "unit": "kPa"},
      {"measurement": "vapor or sublimation pressure", "setting": "[2]; 341.98 K", "result": "21.8 ± 0.35", "unit": "kPa"},
      {"measurement": "vapor or sublimation pressure", "setting": "[2]; 350.79 K", "result": "30.23 ± 0.36", "unit": "kPa"},
      {"measurement": "vapor or sublimation pressure", "setting": "[2]; 359.01 K", "result": "40.33 ± 0.37", "unit": "kPa"},
      {"measurement": "vapor or sublimation pressure", "setting": "[2]; 365.62 K", "result": "50.31 ± 0.38", "unit": "kPa"},
      {"measurement": "vapor or sublimation pressure", "setting": "[2]; 371.73 K", "result": "61.23 ± 0.39", "unit": "kPa"},
      {"measurement": "vapor or sublimation pressure", "setting": "[2]; 376.26 K", "result": "70.53 ± 0.4", "unit": "kPa"},
      {"measurement": "vapor or sublimation pressure", "setting": "[2]; 380.53 K", "result": "80.35 ± 0.42", "unit": "kPa"},
      {"measurement": "vapor or sublimation pressure", "setting": "[2]; 384.69 K", "result": "91 ± 0.43", "unit": "kPa"},
      {"measurement": "vapor or sublimation pressure", "setting": "[2]; 387.89 K", "result": "100.02 ± 0.44", "unit": "kPa"}
    ]},
    {"smiles": "C=C(C)CC(C)(C)C", "note": "[2,4,4-trimethyl-1-pentene]", "values": [
      {"measurement": "refractive index", "setting": "[1]", "result": "1.4062 ± 0.0007"}
    ]}
  ]
}
